Laboratory results taken from PMC8119466, “A screen of FDA-approved drugs identifies inhibitors of protein tyrosine phosphatase 4A3 (PTP4A3 or PRL-3)” (Scientific Reports, 2021).
Counter-ions that a name gives are not always drawn. Like-named read-outs stand apart in the source and are kept apart here.

Experiments:
Type in all cases: biochemical
[1] = target: T1, recombinant PRL-1 (Homo sapiens, UniProt Q93096); assay: In vitro phosphatase assay (DiFMUP hydrolysis), PRL-1; also: test concentration or dose not given here
T1 construct: 6xHis (N, cleaved yes); made in house; host or cells: E. coli One Shot BL21 Star
T1 sequence (Q93096 1-173): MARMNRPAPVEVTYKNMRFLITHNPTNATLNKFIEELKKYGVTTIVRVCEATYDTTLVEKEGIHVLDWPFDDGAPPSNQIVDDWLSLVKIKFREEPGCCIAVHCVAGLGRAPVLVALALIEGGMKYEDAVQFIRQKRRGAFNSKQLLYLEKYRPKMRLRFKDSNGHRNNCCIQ

[2] = target: T2, recombinant PRL-2 (Homo sapiens, UniProt Q12974); assay: In vitro phosphatase assay (DiFMUP hydrolysis), PRL-2;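 also: PRL-2 activity read as DiFMUP hydrolysis after 20 min at room temperature with drug, enzyme first pre-reduced at 4 °C for 20 min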
T2 construct: 6xHis (N, cleaved yes); made in house; host or cells: E. coli One Shot BL21 Star
T2 sequence (Q12974 1-167): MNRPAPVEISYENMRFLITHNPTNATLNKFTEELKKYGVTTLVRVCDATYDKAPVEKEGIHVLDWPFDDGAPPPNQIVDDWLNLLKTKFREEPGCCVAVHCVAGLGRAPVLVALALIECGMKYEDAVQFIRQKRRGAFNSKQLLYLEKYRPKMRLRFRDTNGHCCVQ
Method: Briefly, protein was diluted in reaction buffer and allowed to incubate at 4 °C for 20 min to allow for full reduction of the active site. DiFMUP, drug, and protein were added, and plates were incubated for 20 min at room temperature. Fluorescence intensities were measured on a Cytation 5 plate reader (Biotek) at an EX:360 nm and EM:460 nm. […] Inhibition selectivity for PRLs over a panel of other phosphatases was determined using PhosphataseProfiler (Eurofins, Cat # PP260).

[3] = target: T3, recombinant PRL-3 (Homo sapiens, UniProt O75365); assay: In vitro phosphatase assay (DiFMUP hydrolysis), PRL-3; also: test concentration or dose not given here
T3 construct: 6xHis (N, cleaved yes); made in house; host or cells: E. coli One Shot BL21 Star

[4] = FDA-approved drug screen, compared to DMSO

T3 sequence (O75365 whole entry): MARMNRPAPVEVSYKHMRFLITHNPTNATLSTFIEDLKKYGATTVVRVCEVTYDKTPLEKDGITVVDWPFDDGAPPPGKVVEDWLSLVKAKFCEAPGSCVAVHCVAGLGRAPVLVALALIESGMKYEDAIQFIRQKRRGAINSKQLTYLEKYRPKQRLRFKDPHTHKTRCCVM

SMILES | % Phosphatase Activity (compared to DMSO) PRL-1 [1, 4] | % Phosphatase Activity (compared to DMSO) PRL-2 [2, 4] | % Phosphatase Activity (compared to DMSO) PRL-3 [3, 4] | % Phosphatase Activity (compared to DMSO) PRL-1 [1] | % Phosphatase Activity (compared to DMSO) PRL-2 [2] | % Phosphatase Activity (compared to DMSO) PRL-3 [3]
CC(=O)NO [Acetohydroxamic acid] | 91% | 111% | 75% |  |  | 
CC(=O)OCC[N+](C)(C)C [Acetylcholine Chloride] | 87% | 97% | 95% |  |  | 
CC(=O)N[C@@H](CS)C(=O)O [Acetylcysteine] | 89% | 99% | 70% |  |  | 
CC(=O)NC(CC(C)C)C(=O)O (stereo not drawn) [Acetylleucine] | 110% | 99% | 89% |  |  | 
Nc1nc2c(ncn2COCCO)c(=O)[nH]1 [Aciclovir] | 85% | 99% | 89% |  |  | 
Cc1cnc(C(=O)O)c[n+]1[O-] [Acipimox] | 97% | 102% | 95% |  |  | 
COc1cc(C)c(/C=C/C(C)=C/C=C/C(C)=C/C(=O)O)c(C)c1C [Acitretin] | 83% | 87% | 62% |  |  | 
O=C(O[C@H]1C[N+]2(CCCOc3ccccc3)CCC1CC2)C(O)(c1cccs1)c1cccs1 [Aclidinium Bromide] |  |  |  | 106% | 117% | 90%
COc1ccc(-c2ccc3cc(C(=O)O)ccc3c2)cc1C12CC3CC(CC(C3)C1)C2 [Adapalene] | 183% | 141% | 68% |  |  | 
CC(C)(C)C(=O)OCOP(=O)(COCCn1cnc2c(N)ncnc21)OCOC(=O)C(C)(C)C [Adefovir Dipivoxil] | 92% | 88% | 74% |  |  | 
Nc1ncnc2c1ncn2[C@@H]1O[C@H](CO)[C@@H](O)[C@H]1O [Adenosine] | 100% | 93% | 87% |  |  | 
CNCC(=O)c1ccc(O)c(O)c1.Cl [Adrenalone HCl] | 91% | 91% | 72% |  |  | 
CN(C)C/C=C/C(=O)Nc1cc2c(Nc3ccc(F)c(Cl)c3)ncnc2cc1O[C@H]1CCOC1.O=C(O)/C=C\C(=O)O.O=C(O)/C=C\C(=O)O [Afatinib (BIBW2992) Dimaleate] | 97% | 94% | 101% |  |  | 
COc1ccc2cccc(CCNC(C)=O)c2c1 [Agomelatine] | 92% | 98% | 76% |  |  | 
CCC[S+]([O-])c1ccc2[nH]c(NC(=O)OC)nc2c1 (stereo not drawn) [Albendazole Oxide] | 93% | 100% | 95% |  |  | 
CCCSc1ccc2nc(NC(=O)OC)[nH]c2c1 [Albendazole] |  |  |  | 102% | 88% | 78%
CN1CCC(=C2c3ccccc3CCn3c(C=O)cnc32)CC1 [Alcaftadine] | 98% | 89% | 85% |  |  | 
NCCCC(O)(P(=O)(O)O)P(=O)(O)O [Alendronate] |  |  |  | 110% | 93% | 79%
C=C1/C(=C\C=C2/CCC[C@]3(C)[C@@H]([C@H](C)CCCC(C)C)CC[C@@H]23)C[C@@H](O)C[C@@H]1O [Alfacalcidol] | 99% | 82% | 75% |  |  | 
COc1cc2nc(N(C)CCCNC(=O)C3CCCO3)nc(N)c2cc1OC (stereo not drawn) [Alfuzosin HCl] | 590% | 536% | 290% |  |  | 
